From ChEMBL document CHEMBL1158669, “Cytotoxic scalarane sesterterpenes from a sponge, Hyrtios erecta” (J Nat Prod, 1998) come the findings set out here.

In brackets after ≈: the same amount, converted by molar mass.

Assay [1] has as its system P388. Description: Antitumor activity against mouse P388 cells after 48 hrs by MTT assay. The format is functional, cell-based. The note with it: P388, 48 h. On the technique in general: Tetrazolium dyes change colour on reduction, which living cells bring about.
Assay [2] concerns P388. The assay can be described thus: Antitumor activity against mouse P388 cells implanted in CDF1 mouse assessed as increase in life span at 4.0 mg/kg, ip. The format is functional. The note with it: route intraperitoneal.
Assay [3] relates to P388. Description: Antitumor activity against mouse P388 cells implanted in CDF1 mouse assessed as increase in life span at 0.5 mg/kg, ip. The note with it: route intraperitoneal. The format is functional.
For another assay, the system named is MKN-7. Description: Antitumor activity against human MKN7 cells after 48 hrs by MTT assay. It is filed as functional, cell-based. The settings on record: MKN-7, 48 h.
In assay [4] the test system is P388. Description: Antitumor activity against mouse P388 cells implanted in CDF1 mouse assessed as decrease in weight change at 1.0 mg/kg, ip. It is filed as functional. The arrangement: scale not given: the % may be the effect or the level left. The note with it: route intraperitoneal.
In assay [5] the test system is P388. Description: Antitumor activity against mouse P388 cells implanted in CDF1 mouse assessed as increase in life span at 1.0 mg/kg, ip. It is filed as functional. The note with it: route intraperitoneal.
A further assay relates to MKN-74. Description: Antitumor activity against human MKN74 cells after 48 hrs by MTT assay. It is filed as functional, cell-based. The settings on record: MKN-74, 48 h.
For assay [6], the system named is P388. Description: Antitumor activity against mouse P388 cells implanted in CDF1 mouse assessed as decrease in weight change at 2.0 mg/kg, ip. The settings on record: route intraperitoneal. The format is functional. The arrangement: scale not given: the % may be the effect or the level left.
In assay [7] the test system is P388. Description: Antitumor activity against mouse P388 cells implanted in CDF1 mouse assessed as increase in life span at 2.0 mg/kg, ip. The format is functional. The note with it: route intraperitoneal.
Assay [8] has as its system P388. Description: Antitumor activity against mouse P388 cells implanted in CDF1 mouse assessed as increase in life span at 8.0 mg/kg, ip. It is filed as functional. The note with it: route intraperitoneal.
Assay [9] can be described thus: Antitumor activity against human MKN1 cells after 48 hrs by MTT assay. The format is functional, cell-based. The settings on record: MKN-1, 48 h.
Assay [10] deals with P388. Description: Antitumor activity against mouse P388 cells implanted in CDF1 mouse assessed as decrease in weight change at 8.0 mg/kg, ip. It is filed as functional. The arrangement: scale not given: the % may be the effect or the level left. The note with it: route intraperitoneal.
In assay [11] the test system is P388. The assay can be described thus: Antitumor activity against mouse P388 cells implanted in CDF1 mouse assessed as decrease in weight change at 4.0 mg/kg, ip. It is filed as functional. The settings on record: route intraperitoneal. Also noted: scale not given: the % may be the effect or the level left.
The subject of assay [12] is P388. The assay can be described thus: Antitumor activity against mouse P388 cells implanted in CDF1 mouse assessed as decrease in weight change at 0.5 mg/kg, ip. It is filed as functional. The arrangement: scale not given: the % may be the effect or the level left. The settings on record: route intraperitoneal.

In the case of `CC(=O)O[C@@H]1C[C@@H]2[C@@]3(C)CCCC(C)(C)[C@@H]3CC[C@@]2(C)[C@@H]2CC=C3C(=O)O[C@@H](O)[C@@H]3[C@@]12C`, the half-inhibitory concentration (IC50) (in general, the concentration at which inhibition is half-maximal) in the assay with P388 [1] is more than 1 µg/mL.

`CC1(C)CCC[C@]2(C)[C@H]3C[C@@H](O)[C@]4(C)[C@H]5OC(=O)C=C5[C@@H](O)C[C@H]4[C@]3(C)CC[C@@H]12` displayed a half-inhibitory concentration (IC50) with P388 [1] of more than 1 µg/mL.

Consider `CC1(C)C(=O)CC[C@]2(C)[C@H]3C[C@@H](O)[C@]4(C)[C@@H]5C(=CC[C@H]4[C@]3(C)CC[C@@H]12)CO[C@H]5O`, for which the IC50 is 0.0145 µg/mL (≈ 0.036 µM) in the assay on P388 [1], 0.056 µg/mL (≈ 0.139 µM) with MKN-7, 0.0368 µg/mL (≈ 0.0914 µM) in the assay with MKN-74 and 0.0577 µg/mL (≈ 0.143 µM) in assay [9]. Further, the Activity in the assay on P388 [2] worked out at 51.2%; in the assay with P388 [3] it was 24.4%; in the assay on P388 [4] it was 2%; in the assay with P388 [5], 32.6%; in the assay on P388 [6], 2.4%; in the assay on P388 [7], 31.4%. Further, the Activity is 74.4% in the assay with P388 [8], 0.4% in the assay with P388 [10], 0.9% with P388 [11] and 3% with P388 [12].

Turning to `CC1(C)[C@@H](O)CC[C@]2(C)[C@H]3C[C@@H](O)[C@]4(C)[C@@H]5C(=CC[C@H]4[C@]3(C)CC[C@@H]12)CO[C@H]5O`, in the assay with P388 [1], half-maximal inhibition (IC50) was put at 0.25 µg/mL (≈ 0.618 µM).

For `CC(=O)O[C@@H]1C[C@@H]2[C@@]3(C)CC[C@H](O)C(C)(C)[C@@H]3CC[C@@]2(C)[C@@H]2CC=C3CO[C@@H](O)[C@@H]3[C@@]12C`, the IC50 in the assay with P388 [1] came out at 0.505 µg/mL (≈ 1.13 µM).

`CC1(C)CCC[C@]2(C)[C@H]3C[C@@H](O)[C@]4(C)[C@@H]5C(=CC[C@H]4[C@]3(C)CC[C@@H]12)CO[C@H]5O` showed an IC50 with P388 [1] of more than 1 µg/mL.

The molecule `C[C@@H]1C[C@H]1[C@H](C)C[C@@H](O)[C@@]1([C@H]2CC[C@H]3[C@@H]4CC[C@H]5CC(=O)CC[C@]5(C)[C@H]4C[C@@H](O)[C@]23C)CO1` [ARAGUSTEROL A] displayed an IC50 with P388 [1] of 0.022 µg/mL (≈ 0.048 µM).

In the assay with P388 [1], `C[C@H](CC[C@](C)(O)[C@H]1CC[C@H]2[C@@H]3CC[C@H]4CC(=O)CC[C@]4(C)[C@H]3C[C@@H](O)[C@@]21C)[C@H]1C[C@@H]1C` [ARAGUSTEROL B] yielded an IC50 of more than 3.3 µg/mL.

For the molecule `C[C@H](C[C@@H](O)[C@](O)(CCl)[C@H]1CC[C@H]2[C@@H]3CC[C@H]4CC(=O)CC[C@]4(C)[C@H]3C[C@@H](O)[C@]12C)[C@H]1C[C@@H]1C` [ARAGUSTEROL C], the IC50 in the assay with P388 [1] was 0.041 µg/mL (≈ 0.0828 µM).
